The values below come from patent US12180159B2, “Activators of the unfolded protein response” (The Board of Trustees of the University of Illinois, priority 2018, dated 2024).

Each structure is given as a SMILES string.

Data set [1] concerns ERα Negative MCF-10A cells. Nature of the data set: Trypan Blue exclusion cell death assay, MCF-10A cells. The conditions noted are these: 75 nM, 24 hours. The data set is classed as cell-based. From the text: (§1) TRYPAN BLUE: For decades, viable cells have been measured by their ability to exclude the dye Trypan Blue. […] Dead cells, which have lost membrane integrity, take up the dye and are blue. Thus, the percentage of dead cells is the percentage of cells that are Trypan Blue positive out of the total cell population. Quantitative assessment of Trypan Blue uptake uses a cell counter from Fisher. Since the assay is instrument based, there is no observer bias in determining the percentage of Trypan Blue positive cells.
(§2) TRYPAN BLUE ASSAYS: Assays are performed on cells in 6 well plates: 300,000 cells are plated in each well of a 6 well plate in 3 ml of medium. After 24 hours, the DMSO vehicle or the indicated compound is added (in 1000th of the vol.) The cells incubated for an additional 24 hours, and then harvested in 0.25 ml of trypsin, followed after harvest by 0.75 ml of medium. The cells are spun down and resuspended in 100-200 μl of medium left that is over the cell pellet (resuspend cells by pipetting up and down a few times). Add 10 μl to 10 μl of trypan blue. Then 10 μl is inserted into the counting slide. After inserting the slide into the Fisher TC20 counting is automatic (these many cells are needed because an accurate ratio of Trypan Blue positive to Trypan Blue negative cells requires about 200 cells in the field the instrument counts).
In FIG. 28, neither the test compounds nor BHPI kill non-tumorigenic ERα Negative MCF-10A breast cells. ERα Negative MCF-10A cells were maintained for 24 hours in DMSO vehicle or 75 nM of BHPI or 75 nM of each of the indicated test compounds: 4, 6 and 105. Cell death was determined using the instrument-based Trypan Blue exclusion assay. (n=3±SEM).

A further data set concerns TYS cells (T47DERαY537S). The data set is described as follows: Trypan Blue exclusion cell death assay, TYS cells. The conditions noted are these: 24 hours. The data set is classed as cell-based, human.
From the text: as §1, §2
TYS cells were incubated for 24 hours with 35 nM of BHPI or 35 nM of each of the indicated test compounds: 2, 4, and 105. Cell death was determined using the instrument-based Trypan Blue exclusion assay. (n=3±SEM).
TYS cells were incubated for 24 hours with 50 nM of BHPI or 50 nM of each of the indicated test compounds: 4, 6 and 105. Cell death was determined using the instrument-based Trypan Blue exclusion assay. (n=3±SEM).

A further data set relates to TDG cells (T47DERαD538G). Nature of the data set: Trypan Blue exclusion cell death assay, TDG cells. The data set is classed as cell-based, human. The conditions noted are these: 24 hours.
From the text: as §1, §2
The Trypan Blue cell death assay was used to evaluate the ability of the active enantiomer of C-105 [(−)-105] to kill ERα positive TDG-Luc cells. For all studies, 300,000 TDG-Luc cells/well in 10% FBS were plated in a 6 well plate in triplicate. 24 hours after plating, the indicated concentrations the active enantiomer of (−)-105, or BHPI (top) ICI, or OHT (Lower left) or (+)-105 (lower right) were added. After 24 hours, the cells were harvested, and the % dead cells was determined by automated Trypan Blue exclusion using the Countess II automated hemocytometer. Percentage of viable cells was calculated by doing 100−(Cell Death %). (n=3±SEM).
TDG cells were incubated for 24 hours with 75 nM of BHPI or 75 nM of each of the indicated test compounds: 4, 6 and (±)-105 (enantiomers not separated). Cell death was determined using the instrument-based Trypan Blue exclusion assay. Structures are in the Synthesis section. […] (n=3±SEM).

The test system of data set [2] is T47D, TYS-4 and TDG-1 cells. The data set is described as follows: MTS proliferation assay, T47D, TYS and TDG cells. The conditions noted are these: 4 days. Type of data set: cell-based, human. How it is done: FIG. 30 compares the ability of BHPI and test compounds to inhibit proliferation of T47D, TYS and TDG cells. T47D cells were in medium containing 10 FBS (which contains estrogen), TYS-4 and TDG-1 cells were in medium containing 10% cd-FBS (estrogen depleted). Cells are plated at 2,000 cells/well in 96 well plates. After 24 hours in medium containing FBS or charcoal-dextran treated FBS (depleted of endogenous estrogens), the indicated concentration of each compound (in DMSO at 1/1000th of the volume of medium) was added. After 2 days the medium was changed, and the compounds were added again. After 2 additional days (4 days total) MTS assays are used to evaluate cell proliferation. (n=6±S.E.M.).
On the technique in general: Tetrazolium assays rely on reduction of a dye to a coloured formazan, in cell work by metabolically active cells.

Data set [3] relates to T47D cells. Nature of the data set: Trypan Blue exclusion cell death assay, T47D cells. The conditions noted are these: 75 nM, 24 hours. The data set is classed as cell-based, human.
From the text: as §1
TRYPAN BLUE ASSAYS: Assays are performed on cells in 6 well plates: 300,000 cells are plated in each well of a 6 well plate in 3 ml of medium. After 24 hours, the DMSO vehicle or the indicated compound is added (in 1000th of the vol.) The cells incubated for an additional 24 hours, and then harvested in 0.25 ml of trypsin, followed after harvest by 0.75 ml of medium. […]
T47D cells were incubated for 24 hours with 75 nM of BHPI or 75 nM of each of the indicated test compounds: 4 and 6. Cell death was determined using the instrument-based Trypan Blue exclusion assay. […]
T47D cells were treated for 24 hours with 100 nM BHPI, or with 100 nM of each of the test compounds: 6, 8, and 105. […] Cell death was determined using the instrument-based Trypan Blue exclusion assay. […]

In data set [4] the test system is partially BHPI-resistant T47D clones 1, 3, 8, and 11. Nature of the data set: Growth of partially BHPI-resistant T47D clones (MTS). Type of data set: cell-based, human. Conditions: 100 nM and 1 μM, 4 days. How it is done:
(§3) ERα containing T47D human breast cancer cells able to survive in 1 μM BHPI were selected by clonal outgrowth. The effect of 100 nM and 1 μM BHPI and (−)-105 on growth of the (BHPI-sensitive) parental T47D cells and partially BHPI-resistant T47D clones 1, 3, 8, and 11 was evaluated. 4,000 cells/well were plated. Cell number was determined by MTS assay from a standard curve of absorbance versus cell number. […] Thus, in 4 days (−)-105 killed some, but not all, of the resistant cells.

Data set [5] deals with ERα positive breast cancer. The data set is described as follows: Mouse xenograft model of ERα positive breast cancer (BHPI). Type of data set: in vivo. Conditions: at reasonable doses.
Another data set relates to TYS-Luc cells. Nature of the data set: Long-term cell culture experiment, TYS-Luc cells (MTS). Type of data set: cell-based, human. The conditions noted are these: 2 weeks 1 μM, then 4 weeks without drug. The protocol: To simulate the effect of several weeks of treatment of a tumor in a mouse xenograft, long-term cell culture experiments were performed. TYS-Luc cells (T47DERαY537S-Luc cells; ERαY537S is the most lethal ERα mutation seen in metastatic breast cancer) were plated at 4,000 cells/well in 96 well plates. […] After 2 weeks (medium change every 2 days) cell number was determined using MTS and a standard curve of absorbance versus cell number for TYS-Luc cells. Notes: (i) Bars denote the BHPI and (−)-105 arms of the experiment. No drug is present during regrow. […] This allows any surviving cells to regrow. After 4 weeks the cells were assayed using MTS. […] (Note: Visual inspection of the wells confirmed that there were no cells in the well treated for 2 weeks with active (−)-105.) To test whether the cells that regrew after BHPI treatment were resistant to BHPI they were re-treated for another cycle (BHPI Retreat) and shown to retain sensitivity to BHPI killing. (n=8 biological replicates±SEM.

Data set [6] relates to (BHPI-sensitive) parental T47D cells. The data set is described as follows: Growth of parental T47D cells (MTS). The conditions noted are these: 100 nM and 1 μM, 4 days. The data set is classed as cell-based, human. How it is done:
as §3

For the next data set, the system named is Caov-3 cells. Nature of the data set: Cell death of Caov-3 ovarian cancer cells (automated Trypan Blue exclusion). Type of data set: cell-based, human. The conditions noted are these: 24 hours. The protocol:
FIG. 33. 105, but not BHPI, kills therapy-resistant ovarian CaOV-3 ovarian cancer cells. (±)-105; Cell death assay: Automated Trypan Blue exclusion. (24 hours post (±)-105) FIG. 34. (−)105 nearly eradicates ER+ drug-resistant tumors. Orthotopic breast cancer model, TYS-Luc cells, 40 mg/kg (−)-105 i.p., daily. 7 d Post injection image is a much longer exposure at higher gain than before injection image.
Caov3: Drug resistant ERα positive ovarian cancer cells. […] These cells are completely resistant to tamoxifen and fulvestrant and partially resistant to cisplatin and paclitaxel.

The test system of data set [7] is T47D cells. Conditions: 24 hours, up to 1,000 nM. How it is done:
One such change is loss of plasma membrane polarity. This is monitored using Annexin V. Dying cells also take up the dye propidium iodide. Propidium iodide (PI) fluoresces when it is intercalated into DNA. These assays monitor cells at specific stages of cell death.
FLOW CYTOMETRY (FITC) ASSAYS: Cells were seeded in 12-well plates, 75,000 cells/well, and allowed to adhere overnight. The next day, the indicated concentrations of raptinal (positive control), (−)-105, (±)-105, and (+)-105 were added and allowed to incubate at 37° C. for 24 hours (Final Volume: 1 ml, 0.1% DMSO). After incubation, cells were harvested and resuspended in 350 μl of cold Annexin binding buffer (10 mM HEPES, 140 mM NaCl, 2.5 mM CaCl2, pH 7.4) premixed with Annexin V-FITC and PI dyes. Samples were analyzed on a BD Biosciences LSRII flow cytometer, and data analysis was performed using FSC Express Version 5-6. Cell death was assessed relative to a DMSO treated control.
T47D, human breast cancer cells were plated at 75,000 cells/well. […] After 24 hours viable cells were determined by FACS using annexin V-FITC and propidium iodide dyes. […]
75,000 ERα positive T47D, human breast cancer cells, were plated/well. […] After 24 hours viable cells were determined by FACS using annexin V-FITC and propidium iodide dyes. […]

Another data set has as its system MCF-7 and TYS-Luc cells. The data set is described as follows: Cell death with 2-APB or thapsigargin (Trypan Blue exclusion). The data set is classed as cell-based, human. The conditions noted are these: thapsigargin, TYS-Luc cells, 1 hour. The protocol: ERα positive MCF-7 and TYS-Luc were treated with DMSO vehicle (Veh), or BHPI or (−)-105 plus or minus 2-APB for the indicated times. Cells death was determined using the instrument-based Trypan Blue exclusion assay. […] This is consistent with (−)-105 inducing powerful lethal activation of the anticipatory UPR pathway. (n=3±SEM). […] TYS-Luc cells were maintained in DMSO vehicle (Veh) or BHPI, or (−)-105 with or without thapsigargin (THG) for the indicated times. Blocking the decline in ATP levels (FIG. 19) with THG inhibited (−)-105-induced cell death. […] (n=3±SEM).

Data set [8] deals with ATP levels in TYS-Luc cells. The data set is described as follows: Intracellular ATP levels. Type of data set: cell-based, human. The conditions noted are these: 10,000 nM thapsigargin with 1,000 nM (−)-105, 1 hr. The protocol:
TYS-Luc cells were maintained DMSO vehicle (Veh), 1,000 nM BHPI, 1,000 nM (−)-105 with and without 10,000 nM thapsigargin (THG) for the indicated times. ATP levels were determines using a kit and relative ATP levels were from a standard curve. […] (n=3±SEM).

For `COc1ccc(C2(c3ccc(O)cc3)C(=O)Nc3c(C(F)(F)F)cccc32)cc1` (stereo not shown) [compound 4, 3-(4-hydroxyphenyl)-3-(4-methoxyphenyl)-7-(trifluoromethyl)indolin-2-one], in data set [1], the “death of ERα Negative MCF-10A cells” value is on record as “neither BHPI nor any of the test compounds induce significant death”. The “ability to kill TYS cells compared to BHPI” value is given as “greatly increased ability to kill” with TYS cells (T47DERαY537S) (35 nM) and “increased ability to kill” in the data set with TYS cells (T47DERαY537S) (50 nM). The “ability to kill TDG cells compared to BHPI” value in the data set on TDG cells (T47DERαD538G) (75 nM) is “greatly increased ability to kill”. Besides, in data set [2], the “effectiveness in killing ERα positive breast cancer cells compared to BHPI” value is listed as “more effective than BHPI”. In the data set on T47D cells [3], the “ability to kill T47D cells (wild type estrogen receptor)” value is “greatly increased ability to kill”.
Regarding `Cc1cccc2c1NC(=O)C2(c1ccc(O)cc1)c1ccc(O)cc1` [BHPI, reference compound], the “death of ERα Negative MCF-10A cells” value in data set [1] is “neither BHPI nor any of the test compounds induce significant death”. Besides, the “growth of the BHPI-resistant clones” value in data set [4] is “inhibited growth but could not stop growth of the resistant clones”. The “effect on tumor growth” value in data set [5] is “stopped tumor growth and induced rapid and substantial tumor regression”. Also, the “regrowth of cells after treatment” value in the data set on TYS-Luc cells was “robust regrowth”. The “growth / killing of parental T47D cells” value in data set [6] is “blocked growth and killed many of the T47D cells”. Moreover, the inhibition of proliferation result in [2] was “effectively inhibit proliferation”. In the data set with OVCAR-3 cells (OVCAR-3 orthotopic xenograft), the “effect on tumor growth / tumors” value is “strongly reduced tumor growth”. Besides, the tolerability in mice result with OVCAR-3 cells (in both studies) was “well tolerated”. Moreover, the “killing of Caov-3 ovarian cancer cells” value in the data set with Caov-3 cells is “blocks growth of Caov-3 cells but does not kill them”.
On to `CC/C(=C(\c1ccc(O)cc1)c1ccc(OCCN(C)C)cc1)c1ccccc1` [OHT, z-4-hydroxytamoxifen, reference compound], for which, in the data set on T47D cells [7], the “cytotoxic or cytostatic phenotype” value is “cytostatic”. For the same molecule, the “killing of TDG-Luc cells” value in the data set with TDG cells (T47DERαD538G) (dose response, TDG-Luc cells) was “do not kill”.
Take `C/C=C(/C)C(=O)O[C@H]1C(C)=C2[C@H]([C@@H]1OC(=O)CCCCCCC)[C@@](C)(OC(C)=O)C[C@H](OC(=O)CCC)[C@@]1(O)[C@H]2OC(=O)[C@@]1(C)O` [THG, thapsigargin, reference compound]: the “effect on (−)-105-induced cell death” value in the data set with MCF-7 and TYS-Luc cells is reported as “strong inhibition”. Further, in data set [8], the “effect on (−)-105-induced decline in ATP levels” value is “completely blocked”.
